In patent US12678446B2 (PFIZER INC., priority 2020, dated 2026):

Tests used:
cell toxicity CC50 = format: cell-based; conditions: human; Hep-G2 cells; mean of at least two experiments; read-out: Cell Cytotoxicity CC50
[1] = test system: RSV (RSV A2 ECACC, 0709161v); test: RSV plaque reduction assay; format: cell-based, respiratory syncytial virus; conditions: human respiratory syncytial virus, HepG2, read-out: RSV A2 Plaque EC50, RSV A2 in Hep-G2 cells; mean of at least two experiments unless noted (n = 1)
In short: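 Eight-point compound dilutions were premixed with RSV A2 (100 PFU/well) and applied to confluent Hep-G2 cells for 2 h, followed by a 2-day incubation at 37° C. under compound-containing 0.8% CMC overlay. EC50 comes from immunostained plaque counts relative to untreated virus wells, averaged over ≥2 runs.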

SMILES	CC50 (cell toxicity CC50) [nM]	EC50 [1] [nM]
O=C(N[C@H]1N=C(c2ccccc2)c2cccc(F)c2NC1=O)c1c(-c2ccccc2F)nn2c1OCC(CO)C2 (single isomer, unassigned) [Example 110-1, (6R*)-N-[(3S)-9-fluoro-2-oxo-5-phenyl-1,3-dihydro-1,4-benzodiazepin-3-yl]-2-(2-fluorophenyl)-6-(hydroxymethyl)-6,7-dihydro-5H-pyrazolo[5,1-b][1,3]oxazine-3-carboxamide]	> 25000	42
C[C@@H]1CCn2nc(-c3cnn(C4CC4)c3)c(C(=O)N[C@H]3N=C(c4ccccc4)c4cccc(F)c4NC3=O)c2O1 [Example 126, (5R)-2-(1-Cyclopropylpyrazol-4-yl)-N-[(3S)-9-fluoro-2-oxo-5-phenyl-1,3-dihydro-1,4-benzodiazepin-3-yl]-5-methyl-6,7-dihydro-5H-pyrazolo[5,1-b][1,3]oxazine-3-carboxamide]	> 25000	54
C[C@@H]1CCn2nc(-c3cnn(CC(C)(C)O)c3)c(C(=O)N[C@H]3N=C(c4ccccc4)c4cccc(F)c4NC3=O)c2O1 [Example 122, (5R)-N-[(3S)-9-fluoro-2-oxo-5-phenyl-1,3-dihydro-1,4-benzodiazepin-3-yl]-2-[1-(2-hydroxy-2-methylpropyl)pyrazol-4-yl]-5-methyl-6,7-dihydro-5H-pyrazolo[5,1-b][1,3]oxazine-3-carboxamide]	> 25000	166
CC(C)Nc1ccc(-c2nn3c(c2C(=O)N[C@H]2N=C(c4ccccc4)c4cccc(F)c4NC2=O)OCC2(CC2)C3)cn1 [Example 179, 2-[6-(Propan-2-ylamino)pyridin-3-yl]-N-[(3S)-9-fluoro-2-oxo-5-phenyl-1,3-dihydro-1,4-benzodiazepin-3-yl]spiro[5,7-dihydropyrazolo[5,1-b][1,3]oxazine-6,1′-cyclopropane]-3-carboxamide]	> 25000	34
O=C(N[C@H]1N=C(c2ccccc2)c2ccccc2NC1=O)c1c(-c2ccccc2)nn2c1OCCC2 [Example 22, N-[(3S)-2-oxo-5-phenyl-1,3-dihydro-1,4-benzodiazepin-3-yl]-2-phenyl-6,7-dihydro-5H-pyrazolo[5,1-b][1,3]oxazine-3-carboxamide]	> 25000	140
O=C(N[C@H]1N=C(c2ccccc2)c2cccc(F)c2NC1=O)c1c(-c2ccccc2F)nn2c1S(=O)(=O)CCC2 [Example 33, 2-(2-Fluorophenyl)-N-[(3S)-9-fluoro-2-oxo-5-phenyl-2,3-dihydro-1H-1,4-benzodiazepin-3-yl]-4,4-dioxo-5H,6H,7H-4λ^6-pyrazolo[3,2-b][1,3]thiazine-3-carboxamide]	> 25000	474
Cn1ncc2c(-c3nn4c(c3C(=O)N[C@H]3N=C(c5ccccc5)c5cccc(F)c5NC3=O)OCCC4)cccc21 [Example 147, N-[(3S)-9-fluoro-2-oxo-5-phenyl-1,3-dihydro-1,4-benzodiazepin-3-yl]-2-(1-methylindazol-4-yl)-6,7-dihydro-5H-pyrazolo[5,1-b][1,3]oxazine-3-carboxamide]	> 25000	137
O=C(N[C@H]1N=C(c2ccccc2)c2cccc(F)c2NC1=O)c1c(-c2ccccc2F)nn2c1OCC(CN1CCC(F)(F)C1)C2 (stereo partly drawn) [Example 186, 6-[(3,3-Difluoropyrrolidin-1-yl)methyl]-N-[(3S)-9-fluoro-2-oxo-5-phenyl-1,3-dihydro-1,4-benzodiazepin-3-yl]-2-(2-fluorophenyl)-6,7-dihydro-5H-pyrazolo [5,1-b][1,3]oxazine-3-carboxamide]	> 25000	59
O=C(N[C@H]1N=C(c2ccccc2)c2cccc(F)c2NC1=O)c1c(-c2c(F)cccc2F)nn2c1OCC(CO)C2 (single isomer, unassigned) [Example 129-1, (6R*)-2-(2,6-Difluorophenyl)-N-[(3S)-9-fluoro-2-oxo-5-phenyl-1,3-dihydro-1,4-benzodiazepin-3-yl]-6-(hydroxymethyl)-6,7-dihydro-5H-pyrazolo[5,1-b][1,3]oxazine-3-carboxamide]	> 25000	39
C[C@@H]1Cn2nc(-c3ccccc3F)c(C(=O)N[C@H]3N=C(c4ccccc4)c4ccccc4NC3=O)c2O1 [Example 202, (2R)-6-(2-Fluorophenyl)-2-methyl-N-[(3S)-2-oxo-5-phenyl-1,3-dihydro-1,4-benzodiazepin-3-yl]-2,3-dihydropyrazolo[5,1-b][1,3]oxazole-7-carboxamide]	> 25000	127
CCc1ncc(-c2nn3c(c2C(=O)N[C@H]2N=C(c4ccccc4)c4ccccc4NC2=O)O[C@H](C)CC3)cn1 [Example 59, (5R)-2-(2-Ethylpyrimidin-5-yl)-5-methyl-N-[(3S)-2-oxo-5-phenyl-1,3-dihydro-1,4-benzodiazepin-3-yl]-6,7-dihydro-5H-pyrazolo[5,1-b][1,3]oxazine-3-carboxamide]	> 25000	309
CCc1ccc(-c2nn3c(c2C(=O)N[C@H]2N=C(c4ccccc4)c4ccccc4NC2=O)OCC2(CC2)C3)cn1 [Example 180, 2-(6-Ethylpyridin-3-yl)-N-[(3S)-2-oxo-5-phenyl-1,3-dihydro-1,4-benzodiazepin-3-yl]spiro[5,7-dihydropyrazolo[5,1-b][1,3]oxazine-6,1′-cyclopropane]-3-carboxamide]	> 25000	75
CC(C)C1COc2c(C(=O)N[C@H]3N=C(c4ccccc4)c4cccc(F)c4NC3=O)c(-c3ccccc3F)nn2C1 (stereo partly drawn) [Example 12, N-[(3S)-9-Fluoro-2-oxo-5-phenyl-2,3-dihydro-1H-1,4-benzodiazepin-3-yl]-2-(2-flurophenyl)-6-(propan-2-yl)-5H,6H,7H-pyrazolo[3,2-b][1,3]oxazine-3-carboxamide]	> 25000	39
O=C(N[C@H]1N=C(c2ccccc2)c2cccc(F)c2NC1=O)c1c(-c2ccccc2)nn2c1OCCC2 [Example 23, N-[(3S)-9-fluoro-2-oxo-5-phenyl-1,3-dihydro-1,4-benzodiazepin-3-yl]-2-phenyl-6,7-dihydro-5H-pyrazolo[5,1-b][1,3]oxazine-3-carboxamide]	> 25000	60
O=C(N[C@H]1N=C(c2ccccc2)c2cccc(F)c2NC1=O)c1c(-c2ccccc2F)nn2c1OCC(O)C2 (stereo partly drawn) [Example 160, 2-(2-Fluorophenyl)-6-hydroxy-N-[(3S)-9-fluoro-2-oxo-5-phenyl-1,3-dihydro-1,4-benzodiazepin-3-yl]-6,7-dihydro-5H-pyrazolo[5,1-b][1,3]oxazine-3-carboxamide]	> 25000	148
CN(CC1COc2c(C(=O)N[C@H]3N=C(c4ccccc4)c4cccc(F)c4NC3=O)c(-c3ccccc3F)nn2C1)C1COC1 (stereo partly drawn) [Example 169, N-[(3S)-9-fluoro-2-oxo-5-phenyl-1,3-dihydro-1,4-benzodiazepin-3-yl]-2-(2-fluorophenyl)-6-[[methyl(oxetan-3-yl)amino]methyl]-6,7-dihydro-5H-pyrazolo[5,1-b][1,3]oxazine-3-carboxamide]	> 25000	114
CC1Cn2nc(-c3ccccc3F)c(C(=O)N[C@H]3N=C(c4ccccc4)c4cccc(F)c4NC3=O)c2O1 (stereo in doubt) [Example 163, (2S)-N-[(3S)-9-fluoro-2-oxo-5-phenyl-1,3-dihydro-1,4-benzodiazepin-3-yl]-6-(2-fluorophenyl)-2-methyl-2,3-dihydropyrazolo[5,1-b][1,3]oxazole-7-carboxamide]	> 25000	76
C[C@H]1CCn2nc(-c3ccccc3F)c(C(=O)N[C@H]3N=C(c4ccccc4)c4ccccc4NC3=O)c2O1 [Example 26, (5S)-2-(2-Fluorophenyl)-5-methyl-N-[(3S)-2-oxo-5-phenyl-1,3-dihydro-1,4-benzodiazepin-3-yl]-6,7-dihydro-5H-pyrazolo[5,1-b][1,3]oxazine-3-carboxamide]	> 25000	43
O=C(N[C@H]1N=C(c2ccccc2)c2ccccc2NC1=O)c1c(-c2cccnc2)nn2c1OCCC2 [Example 16, N-[(3S)-2-Oxo-5-phenyl-1,3-dihydro-1,4-benzodiazepin-3-yl]-2-pyridin-3-yl-6,7-dihydro-H-pyrazolo[5,1-b][1,3]oxazine-3-carboxamide]	> 25000	454
CN(C)Cc1ccc(-c2nn3c(c2C(=O)N[C@H]2N=C(c4ccccc4)c4cccc(F)c4NC2=O)OCCC3)c(F)c1 [Example 100]	> 25000	75
O=C(N[C@H]1N=C(c2ccccc2)c2ccccc2NC1=O)c1c(-c2cccnc2F)nn2c1OCCC2 [Example 136, 2-(2-Fluoropyridin-3-yl)-N-[(3S)-2-oxo-5-phenyl-1,3-dihydro-1,4-benzodiazepin-3-yl]-6,7-dihydro-5H-pyrazolo[5,1-b][1,3]oxazine-3-carboxamide]	> 25000	182
O=C(N[C@H]1N=C(c2ccccc2)c2cccc(F)c2NC1=O)c1c(-c2ccccc2F)nn2c1SCCC2 [Example 35, N-[(3S)-9-Fluoro-2-oxo-5-phenyl-2,3-dihydro-1H-1,4-benzodiazepin-3-yl]-2-(2-fluorophenyl)-5H,6H,7H-pyrazolo[3,2-b][1,3]thiazine-3-carboxamide]	> 25000	117
CCc1ccc(-c2nn3c(c2C(=O)N[C@H]2N=C(c4ccccc4)c4cccc(F)c4NC2=O)OCC(CO)C3)cn1 (stereo partly drawn) [Example 133, 2-(6-Ethylpyridin-3-yl)-N-[(3S)-9-fluoro-2-oxo-5-phenyl-1,3-dihydro-1,4-benzodiazepin-3-yl]-6-(hydroxymethyl)-6,7-dihydro-5H-pyrazolo[5,1-b][1,3]oxazine-3-carboxamide]	> 25000	220
